Some results are limits rather than exact numbers.

One may read the EC50 as the concentration that produces a half-maximal response.

GABA-B receptor, sequence (Q9Z0U4 17-960): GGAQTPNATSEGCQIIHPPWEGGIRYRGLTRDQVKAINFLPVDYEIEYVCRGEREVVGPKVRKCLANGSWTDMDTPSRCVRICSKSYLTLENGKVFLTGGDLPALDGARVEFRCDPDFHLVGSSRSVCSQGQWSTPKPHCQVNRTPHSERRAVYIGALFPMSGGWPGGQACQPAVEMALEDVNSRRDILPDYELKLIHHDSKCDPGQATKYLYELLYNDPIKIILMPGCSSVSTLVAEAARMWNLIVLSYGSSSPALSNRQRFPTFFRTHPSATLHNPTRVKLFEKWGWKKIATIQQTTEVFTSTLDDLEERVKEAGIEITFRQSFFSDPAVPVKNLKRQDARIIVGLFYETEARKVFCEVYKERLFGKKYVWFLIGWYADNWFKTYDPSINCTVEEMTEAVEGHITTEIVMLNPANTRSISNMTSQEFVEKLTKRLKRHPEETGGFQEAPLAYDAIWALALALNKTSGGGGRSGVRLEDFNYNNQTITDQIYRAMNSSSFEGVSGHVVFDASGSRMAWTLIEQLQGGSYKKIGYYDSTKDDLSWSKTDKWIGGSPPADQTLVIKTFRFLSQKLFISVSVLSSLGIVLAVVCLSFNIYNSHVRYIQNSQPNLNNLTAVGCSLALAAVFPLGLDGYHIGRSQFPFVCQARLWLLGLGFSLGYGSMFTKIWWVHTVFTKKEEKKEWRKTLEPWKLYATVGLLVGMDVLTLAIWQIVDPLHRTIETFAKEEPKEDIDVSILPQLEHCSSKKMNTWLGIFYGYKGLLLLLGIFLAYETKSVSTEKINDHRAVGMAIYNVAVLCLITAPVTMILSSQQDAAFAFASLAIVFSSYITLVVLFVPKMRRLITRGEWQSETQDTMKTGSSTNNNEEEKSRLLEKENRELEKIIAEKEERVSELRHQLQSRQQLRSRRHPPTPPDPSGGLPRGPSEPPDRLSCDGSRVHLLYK
GABA-B receptor, sequence (O88871 41-940): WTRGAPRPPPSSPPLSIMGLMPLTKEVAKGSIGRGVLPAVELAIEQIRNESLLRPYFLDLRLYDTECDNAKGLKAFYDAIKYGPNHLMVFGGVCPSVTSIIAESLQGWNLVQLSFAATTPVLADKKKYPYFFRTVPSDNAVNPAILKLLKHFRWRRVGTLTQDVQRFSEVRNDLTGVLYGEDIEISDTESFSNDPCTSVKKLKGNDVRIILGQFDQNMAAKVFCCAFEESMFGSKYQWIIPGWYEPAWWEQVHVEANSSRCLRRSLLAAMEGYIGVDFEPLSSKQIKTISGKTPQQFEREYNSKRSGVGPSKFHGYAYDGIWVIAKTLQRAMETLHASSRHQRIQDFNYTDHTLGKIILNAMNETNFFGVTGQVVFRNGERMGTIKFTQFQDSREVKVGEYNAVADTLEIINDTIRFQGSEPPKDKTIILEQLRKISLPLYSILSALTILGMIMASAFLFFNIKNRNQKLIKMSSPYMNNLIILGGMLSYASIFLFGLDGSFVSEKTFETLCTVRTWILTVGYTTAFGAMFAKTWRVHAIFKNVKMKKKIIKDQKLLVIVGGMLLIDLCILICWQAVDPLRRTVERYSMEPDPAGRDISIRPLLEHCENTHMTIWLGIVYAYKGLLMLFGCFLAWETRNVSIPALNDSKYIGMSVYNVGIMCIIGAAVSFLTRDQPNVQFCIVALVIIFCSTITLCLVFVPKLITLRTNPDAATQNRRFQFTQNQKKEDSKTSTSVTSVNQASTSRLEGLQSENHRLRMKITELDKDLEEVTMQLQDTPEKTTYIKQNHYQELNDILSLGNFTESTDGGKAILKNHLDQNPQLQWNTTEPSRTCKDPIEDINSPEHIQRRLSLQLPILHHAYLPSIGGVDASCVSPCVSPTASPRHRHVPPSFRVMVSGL

In this assay the target is GABA-B receptor (Rattus norvegicus (Rat), UniProt O88871+Q9Z0U4). As to the kind of experiment: [35S]GTPgS Binding Assay (rat brain cortex membranes, native receptor). The note with it: rat cortical membranes; in the presence of 1 μM GABA (EC25); basal binding 0%, maximal binding (1 mM GABA) 100%. In kind it is biochemical. On the procedure:
Preparation of Rat Brain Membranes for Native Receptor Assays
Membranes from rat brain cortex were prepared as described in detail by Olpe et al. and stored at concentrations of 1.66 mg/mL protein at −80° C. until required. (Olpe, H.-R, et al. Eur J Pharmacol 1990; 187: 27-38).
[^35S]GTPgS Binding Assay
The samples were incubated at room temperature for 60 minutes on a shaker. The incubation was stopped by rapid vacuum filtration over glass-fiber filter plates (UniFilter-96 well, GF/B membrane plates, PerkinElmer) using a 96-well plate harvester (TOMTEK© Harvester). The UniFilter plate was washed five times with ice-cold wash buffer (50 mM Tris-HCl buffer, pH 7.7, 10 mM MgCl2, and 100 mM NaCl. After filtration the plate was dried for 90 minutes at 55° C. The plates were closed on the bottom with black sealing membranes, and liquid scintillation cocktail (35 μL, Betaplate Scint, PerkinElmer) was added to each well. After sealing the top of the plate, an additional incubation step of 90 minutes at room temperature followed before measuring the plate. The amount of membrane-bound [^35S]GTPgS was measured using a 96-well plate reader (Microbeta®, PerkinElmer). Nonspecific binding was measured in the presence of unlabeled 10 μM of GTPgS (Millipore) and without GABA. Basal binding was measured in the absence of 1 μM GABA, and maximal binding was measured in the presence of GABA using 1 mM GABA concentrations.
Data analysis. The concentration-response curves of compounds of the present disclosure in the presence of EC25 of GABA-B receptor agonist were generated using the GraphPad Prism® program (GraphPad Software, San Diego, Calif.). Data was normalized using basal binding as 0% and maximal binding as 100%. The curves were fitted by nonlinear regression allowing determination of EC50 values from sigmoidal dose-response curves. Each curve was performed using triplicate sample per date point and 10 concentrations.
(GTPγS resists hydrolysis and so accumulates on activated G proteins.)
Take `Cc1noc2c(-c3cccs3)nn(Cc3ccc(Cl)cc3)c(=O)c12` [Example 56, 5-(4-chlorobenzyl)-3-methyl-7-(thiophen-2-yl)[1,2]oxazolo[4,5-d]pyridazin-4(5H)-one]: the EC50 stood at 0.982 µM.
The figure for `Cc1noc2c(-c3cccc(N)c3)nn(C(C)c3ccc(Cl)cc3)c(=O)c12` (stereo not shown) [Example 126, 7-(3-aminophenyl)-5-[1-(4-chlorophenyl)ethyl]-3-methyl[1,2]oxazolo[4,5-d]pyridazin-4(5H)-one] is 0.501 µM; for `Cc1noc2c(-c3ccccc3)nn(Cc3ccc(Cl)cc3)c(=O)c12` [Example 122, 5-(4-chlorobenzyl)-3-methyl-7-phenyl[1,2]oxazolo[4,5-d]pyridazin-4(5H)-one] it is 3.8 µM; for `Cc1nn(C(C)c2ccc(Cl)cc2)c(=O)c2c(C)noc12` (stereo not shown) [Example 114, 5-[1-(4-chlorophenyl)ethyl]-3,7-dimethyl[1,2]oxazolo[4,5-d]pyridazin-4(5H)-one] it is 3.8 µM.
For `COc1ccc(C(=O)O)cc1-c1nn(C(C)c2ccc(Cl)cc2)c(=O)c2c(C)noc12` (stereo not shown) [Example 73], the EC50 was found to be 0.039 µM.
For the molecule `COc1ccc(OC)c(-c2nn([C@H](C)c3ccc(Cl)cc3)c(=O)c3c(C4CC4)noc23)c1` [Example 128, 5-[(1R)-1-(4-chlorophenyl)ethyl]-3-cyclopropyl-7-(2,5-dimethoxyphenyl)-[1,2]oxazolo[4,5-d]pyridazin-4(5H)-one], the EC50 is more than 10 µM.
Under `COc1ccc(NC(C)=O)cc1-c1nn([C@H](C)c2ccc(Cl)cc2)c(=O)c2c(C3CC3)noc12` [Example 3, N-(3-{5-[(1R)-1-(4-chlorophenyl)ethyl]-3-cyclopropyl-4-oxo-4,5-dihydro[1,2]oxazolo[4,5-d]pyridazin-7-yl}-4-methoxyphenyl)acetamide] stands more than 10 µM.
The figure for `CC(=O)Nc1cccc(-c2nn(C(C)c3ccc(Cl)cc3)c(=O)c3c(C)noc23)c1` (stereo not shown) [Example 78, N-(3-{5-[1-(4-chlorophenyl)ethyl]-3-methyl-4-oxo-4,5-dihydro[1,2]oxazolo[4,5-d]pyridazin-7-yl}phenyl)acetamide] is 6.35 µM; for `Cc1nn(CCc2ccc(Cl)cc2)c(=O)c2c(C)noc12` [Example 60, 5-[2-(4-chlorophenyl)ethyl]-3,7-dimethyl[1,2]oxazolo[4,5-d]pyridazin-4(5H)-one] it is more than 10 µM.
Under `Cc1ccccc1-c1nn(Cc2ccc(Cl)cc2)c(=O)c2c(C)noc12` [Example 76, 5-(4-chlorobenzyl)-3-methyl-7-(2-methylphenyl)[1,2]oxazolo[4,5-d]pyridazin-4(5H)-one] stands 1.93 µM; under `Cc1noc2c(-c3cccc(F)c3)nn(Cc3ccc(Cl)cc3)c(=O)c12` [Example 23, 5-(4-chlorobenzyl)-7-(3-fluorophenyl)-3-methyl[1,2]oxazolo[4,5-d]pyridazin-4(5H)-one], more than 10 µM.
Consider `Cc1noc2c(-c3cnc4cc[nH]c4c3)nn(C(C)c3ccc(Cl)cc3)c(=O)c12` (stereo not shown) [Example 116, 5-[1-(4-chlorophenyl)ethyl]-3-methyl-7-(1H-pyrrolo[3,2-b]pyridin-6-yl)[1,2]oxazolo[4,5-d]pyridazin-4(5H)-one], for which the concentration giving a half-maximal response (EC50) was 0.855 µM.
The figure for `COc1ccc(-c2nn(Cc3ccc(C(F)(F)F)cc3)c(=O)c3c(C)noc23)c(OC)c1` [Example 127, 7-(2,4-dimethoxyphenyl)-3-methyl-5-[4-(trifluoromethyl)benzyl][1,2]oxazolo[4,5-d]pyridazin-4(5H)-one] is 1.56 µM; for `COc1ccc(NC(C)=O)cc1-c1nn([C@@H](C)c2ccc(Cl)cc2)c(=O)c2c(C)noc12` [Example 117, N-(3-{5-[(1S)-1-(4-chlorophenyl)ethyl]-3-methyl-4-oxo-4,5-dihydro[1,2]oxazolo[4,5-d]pyridazin-7-yl}-4-methoxyphenyl)acetamide] it is 0.043 µM; for `COc1ccc(OC)c(-c2nn(Cc3ccc(C(F)(F)F)cc3)c(=O)c3c(C)noc23)c1` [Example 95, 7-(2,5-dimethoxyphenyl)-3-methyl-5-[4-(trifluoromethyl)benzyl][1,2]oxazolo[4,5-d]pyridazin-4(5H)-one] it is 1.74 µM.
The figure for `CC(=O)Nc1ccc(OC(F)(F)F)c(-c2nn(C(C)c3ccc(Cl)cc3)c(=O)c3c(C)noc23)c1` (stereo not shown) [Example 49, N-[3-{5-[1-(4-chlorophenyl)ethyl]-3-methyl-4-oxo-4,5-dihydro[1,2]oxazolo[4,5-d]pyridazin-7-yl}-4-(trifluoromethoxy)phenyl]acetamide] is 0.283 µM; for `CC(=O)Nc1cc(-c2nn(Cc3ccc(F)c(C(F)(F)F)c3)c(=O)c3c(C)noc23)ccc1F` [Example 61, N-(2-fluoro-5-{5-[4-fluoro-3-(trifluoromethyl)benzyl]-3-methyl-4-oxo-4,5-dihydro[1,2]oxazolo[4,5-d]pyridazin-7-yl}phenyl)acetamide] it is more than 10 µM; for `COCc1noc2c(-c3cccc(NC(C)=O)c3)nn(Cc3ccc(Cl)cc3)c(=O)c12` [Example 27, N-{3-[5-(4-chlorobenzyl)-3-(methoxymethyl)-4-oxo-4,5-dihydro[1,2]oxazolo[4,5-d]pyridazin-7-yl]phenyl}acetamide] it is 3.2 µM.
Under `Cc1noc2c(-c3cccnc3)nn(C(C)c3ccc(Cl)cc3)c(=O)c12` (stereo not shown) [Example 109, 5-[1-(4-chlorophenyl)ethyl]-3-methyl-7-(pyridin-3-yl)[1,2]oxazolo[4,5-d]pyridazin-4(5H)-one] stands 1.21 µM; under `COCc1noc2c(-c3cc(OC)ccc3OC)nn(Cc3ccc(Cl)cc3)c(=O)c12` [Example 71, 5-(4-chlorobenzyl)-7-(2,5-dimethoxyphenyl)-3-(methoxymethyl)[1,2]oxazolo[4,5-d]pyridazin-4(5H)-one], 2.21 µM; under `Cc1noc2c(-c3cc(F)cc(F)c3N)nn(C(C)c3ccc(Cl)cc3)c(=O)c12` (stereo not shown) [Example 77, 7-(2-amino-3,5-difluorophenyl)-5-[1-(4-chlorophenyl)ethyl]-3-methyl[1,2]oxazolo[4,5-d]pyridazin-4(5H)-one], 2.48 µM.
For the molecule `CCCc1noc2c(-c3cccc(NC(C)=O)c3)nn(Cc3ccc(Cl)cc3)c(=O)c12` [Example 91, N-{3-[5-(4-chlorobenzyl)-4-oxo-3-propyl-4,5-dihydro[1,2]oxazolo[4,5-d]pyridazin-7-yl]phenyl}acetamide], the EC50 stood at 2.12 µM.
The figure for `Cc1noc2c(-c3ccc(F)cc3)nn(Cc3ccc(C(F)(F)F)cc3)c(=O)c12` [Example 19, 7-(4-fluorophenyl)-3-methyl-5-[4-(trifluoromethyl)benzyl][1,2]oxazolo[4,5-d]pyridazin-4(5H)-one] is 1.58 µM; for `COc1ccc(OC)c(-c2nn(Cc3ccc(Cl)cc3)c(=O)c3c(C)noc23)c1` [Example 102, 5-(4-chlorobenzyl)-7-(2,5-dimethoxyphenyl)-3-methyl[1,2]oxazolo[4,5-d]pyridazin-4(5H)-one] it is 0.846 µM.
Under `COc1ccc(Cn2nc(-c3ccc(F)cc3)c3onc(C)c3c2=O)cc1C(F)(F)F` [Example 66, 7-(4-fluorophenyl)-5-[4-methoxy-3-(trifluoromethyl)benzyl]-3-methyl[1,2]oxazolo[4,5-d]pyridazin-4(5H)-one] stands 2.79 µM; under `CNC(=O)c1ccc(OC)c(-c2nn([C@@H](C)c3ccc(Cl)cc3)c(=O)c3c(C)noc23)c1` [Example 82, 3-{5-[(1S)-1-(4-chlorophenyl)ethyl]-3-methyl-4-oxo-4,5-dihydro[1,2]oxazolo[4,5-d]pyridazin-7-yl}-4-methoxy-N-methylbenzamide], 0.023 µM.
Consider `COc1ccc(-c2nn(Cc3cc(C(F)(F)F)ccc3F)c(=O)c3c(C)noc23)c(OC)c1` [Example 48, 7-(2,4-dimethoxyphenyl)-5-[2-fluoro-5-(trifluoromethyl)benzyl]-3-methyl[1,2]oxazolo[4,5-d]pyridazin-4(5H)-one], for which the concentration giving a half-maximal response (EC50) stood at 1.55 µM.
Consider `Cc1noc2c(-c3cc(Cl)ccc3N)nn(C(C)c3ccc(Cl)cc3)c(=O)c12` (stereo not shown) [Example 6, 7-(2-amino-5-chlorophenyl)-5-[1-(4-chlorophenyl)ethyl]-3-methyl[1,2]oxazolo[4,5-d]pyridazin-4(5H)-one], for which the EC50 came out at 1.96 µM.
Under `Cc1nn([C@H](C)c2ccc(Cl)cc2)c(=O)c2c(C)noc12` (single isomer, unassigned) [Example 58] stands more than 10 µM; under `Cc1noc2c(-c3cccnc3)nn(Cc3ccc(Cl)cc3)c(=O)c12` [Example 120, 5-(4-chlorobenzyl)-3-methyl-7-(pyridin-3-yl)[1,2]oxazolo[4,5-d]pyridazin-4(5H)-one], 6.82 µM.
The figure for `COc1ccccc1-c1nn(Cc2ccc(F)c(C(F)(F)F)c2)c(=O)c2c(C)noc12` [Example 54, 5-[4-fluoro-3-(trifluoromethyl)benzyl]-7-(2-methoxyphenyl)-3-methyl[1,2]oxazolo[4,5-d]pyridazin-4(5H)-one] is 1.2 µM.

The values above are taken from US10556914B2, “Substituted isoxazolopyridazinones and isothiazolopyridazinones and methods of use” (AbbVie Inc., priority 2015, dated 2020).
